From US20090239846A1, “Novel Compounds” (Glaxo Group Limited, priority 2005, published 2009) come the findings set out here.

Structures can show the parent of a compound that is named as a salt. Where two headings read alike, the source gives them in different places. Bounds are passed on as bounds.

Data set [1] deals with T1, Recombinant human p38α (Homo sapiens, UniProt Q16539).
T1 construct: GST; made in house
The experiment in a line: Fluorescence anisotropy kinase binding assay (standard or low volume). The note with it: for active in the assay (pIC50, p38α binding): 12 nM p38α, 5 nM fluorescent ligand. A digest of the protocol: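 Activated GST-tagged recombinant human p38α (pre-activated with MBP-MKK6 DD) at 12 nM final with 5 nM rhodamine green-labelled pyridinylimidazole tracer in pH 7.5 HEPES/CHAPS/DTT/MgCl2 buffer. Test compound 0.28 nM–16.6 μM or 0.02 nM–25 μM final, 3% or 1.7% DMSO; 30–60 min at room temperature. Fluorescence anisotropy read (ex 485/em 535 nm) for Ki.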

In data set [2] the test system is IL-8 production by human neutrophils. The experiment in a line: TNF-stimulated IL-8 production from human neutrophils. The note with it: Neutrophil. The data set is classed as cell-based.
Description: TNF-Stimulated IL-8 Production from Human Neutrophils The effect of test compounds on TNF-stimulated IL8 production by human neutrophils is measured as follows. Neutrophils are prepared from blood obtained from consenting donors, using standard methods. Blood is collected in heparinized syringes and layered over histopaque (30 ml/20 ml). Following centrifugation, the red cell pellet is resuspended in PBS and purified over a dextran gradient. Red blood cells are lysed with water for 40 sec, remaining granulocytes collected by centrifugation and resuspended at 1.5×10̂6 cells/ml. Cells are added (0.5-1 ml) to 48 well plates already containing compound at 1000×final concentration in neat DMSO or 10% DMSO in RPMI1640 with 10% FBS. TNF (final concentration 100 ng/ml) is used as the stimulus. Cells incubated for approximately 20 hrs at 37° C., 5% CO2. Levels of IL-8 in the cell free supernatant are determined by sandwich ELISA, and inhibition relative to a control with DMPO but no compound is calculated.
Data set [3] has as its system influx of neutrophils to the lung in LPS-challenged rats. The experiment in a line: Rat LPS neutrophilia model. The data set is classed as in vivo. The note with it: LPS aerosol, lavage 4 hours later, in at least one of the range of conditions tested, significance p<0.05. A digest of the protocol:
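Rats pretreated 15 min–24 h with compound or vehicle, given intratracheally (200 ul, isoflurane anaesthesia) as suspension in various vehicles, then exposed to LPS aerosol (100 ug/ml) 15 min. BAL 4 h later; Diffquick-stained differential counts give % inhibition of neutrophils versus no-compound controls at a set concentration and pretreatment time.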

The mark [4] stands for this setting: bound, read-out: apparent pIC50 (converted).
Where [5] appears, read: bound, not more than 50% inhibition at 100 nM, read-out: IC50.
The mark [6] stands for this setting: second end given as 'less than', read-out: pIC50, broad range of data upon multiple runs (converted).

T1 sequence (Q16539 whole entry): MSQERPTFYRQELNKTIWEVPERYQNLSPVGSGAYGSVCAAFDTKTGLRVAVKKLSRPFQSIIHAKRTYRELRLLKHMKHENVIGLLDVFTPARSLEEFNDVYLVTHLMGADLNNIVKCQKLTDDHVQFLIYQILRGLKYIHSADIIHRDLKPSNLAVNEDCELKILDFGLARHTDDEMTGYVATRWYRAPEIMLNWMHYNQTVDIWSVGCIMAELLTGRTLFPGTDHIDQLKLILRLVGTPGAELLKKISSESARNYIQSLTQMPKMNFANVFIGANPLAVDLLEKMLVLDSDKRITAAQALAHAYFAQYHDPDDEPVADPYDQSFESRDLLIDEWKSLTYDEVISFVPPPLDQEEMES

Take `Cc1ccc(C(=O)NCc2ccccc2)cc1-c1nc(NCCN(C)C(=O)OC(C)(C)C)nc2c1CNC(=O)N2c1c(F)cccc1F` [19(a), 1,1-Dimethylethyl (2-{[8-(2,6-difluorophenyl)-4-(2-methyl-5-{[(phenylmethyl)amino]carbonyl}phenyl)-7-oxo-5,6,7,8-tetrahydropyrimido[4,5-d]pyrimidin-2-yl]amino}ethyl)methylcarbamate]: the IC50 in data set [1] (setting [4]) is greater than 15.8 µM; in data set [2] (ends given as 'less than' / 'greater than', read-out: IC50, broad range of data upon multiple runs) it was 40 to 100 nM.

In the case of `Cc1ccc(C(=O)Nc2ccc(C)c(-c3nc(S(C)(=O)=O)nc4c3CNC(=O)N4c3c(F)cccc3F)c2)cc1F` [23(d), N-[3-[8-(2,6-difluorophenyl)-2-(methylsulfonyl)-7-oxo-5,6,7,8-tetrahydropyrimido[4,5-d]pyrimidin-4-yl]-4-methylphenyl]-3-fluoro-4-methylbenzamide], the “active in the assay (pIC50, p38α binding)” value (from here on “active in the assay”) in data set [1] is reported as “active”. Further, the IC50 in data set [2] (setting [5]) is greater than 100 nM.

On to `CN(C)CCNc1nc(-c2ccc(C(=O)Nc3nccs3)cc2)c2c(n1)N(c1c(F)cccc1F)C(=O)NC2` [96(b), 4-(8-(2,6-difluorophenyl)-2-{[2-(dimethylamino)ethyl]amino}-7-oxo-5,6,7,8-tetrahydropyrimido[4,5-d]pyrimidin-4-yl)-N-1,3-thiazol-2-ylbenzamide], for which the “active in the assay” value in data set [1] is “active”. Moreover, the IC50 in data set [2] (setting [5]) was greater than 100 nM.

Turning to `CCN(CC)C(=O)c1ccc(C)c(-c2nc(SC)nc3c2CNC(=O)N3c2c(F)cccc2F)c1` [156(a)], in data set [1], the “active in the assay” value is given as “active”. In addition, the IC50 in data set [2] (setting [5]) is greater than 100 nM.

Consider `CCN(CC)C(=O)c1ccc(C)c(-c2nc(S(C)(=O)=O)nc3c2CNC(=O)N3c2c(F)cccc2F)c1` [156(b), 3-[8-(2,6-difluorophenyl)-2-(methylsulfonyl)-7-oxo-5,6,7,8-tetrahydropyrimido[4,5-d]pyrimidin-4-yl]-N,N-diethyl-4-methylbenzamide], for which the “active in the assay” value in data set [1] is listed as “active”. Besides, the IC50 in data set [2] (setting [5]) was greater than 100 nM.

Take `CNCCNc1nc(-c2cc(C(=O)NCC3CC3)ccc2C)c2c(n1)N(c1c(F)cccc1F)C(=O)NC2` [Example 5, N-(Cyclopropylmethyl)-3-(8-(2,6-difluorophenyl)-2-{[2-(methylamino)ethyl]amino}-7-oxo-5,6,7,8-tetrahydropyrimido[4,5-d]pyrimidin-4-yl)-4-methylbenzamide]: the “active in the assay” value in data set [1] was “active”. For the same compound, in data set [2] (setting [5]), the IC50 is greater than 100 nM.

The compound `Cc1ccc(NC(=O)c2ccsc2)cc1-c1nc(N(C)C)nc2c1CNC(=O)N2c1c(F)cccc1F` [Example 12, N-{3-[8-(2,6-difluorophenyl)-2-(dimethylamino)-7-oxo-5,6,7,8-tetrahydropyrimido[4,5-d]pyrimidin-4-yl]-4-methylphenyl}-3-thiophenecarboxamide] registered a melting point of 214 to 215 °C.

`CCOc1nc(-c2cc(NC(=O)c3ccsc3)ccc2C)c2c(n1)N(c1c(F)cccc1F)C(=O)NC2` [Example 13]: the melting point is 199 to 202 °C (dec.).

For `CNc1nc(-c2cc(NC(=O)c3ccsc3)ccc2C)c2c(n1)N(c1c(F)cccc1F)C(=O)NC2` [Example 14, N-{3-[8-(2,6-difluorophenyl)-2-(methylamino)-7-oxo-5,6,7,8-tetrahydropyrimido[4,5-d]pyrimidin-4-yl]-4-methylphenyl}-3-thiophenecarboxamide], the melting point was 203 to 207 °C (dec.).

Regarding `Cc1ccc(C(=O)NCc2ccccc2)cc1-c1nc(NC2CC(C)(C)NC(C)(C)C2)nc2c1CNC(=O)N2c1c(F)cccc1F` [Example 16, 3-{8-(2,6-Difluorophenyl)-7-oxo-2-[(2,2,6,6-tetramethyl-4-piperidinyl)amino]-5,6,7,8-tetrahydropyrimido[4,5-d]pyrimidin-4-yl}-4-methyl-N-(phenylmethyl)benzamide], the melting point is 160 to 165 °C (dec.).

`CCOc1nc(-c2cc(NC(=O)c3ccc(C)c(F)c3)ccc2C)c2c(n1)N(c1c(F)cccc1F)C(=O)NC2` [Example 25] displayed a melting point of 257.3 to 262.5 °C.

`Cc1ccc(C(=O)NC(C)C)cc1-c1nc(N2CCC(N3CCN(C)CC3)CC2)nc2c1CNC(=O)N2c1c(F)cccc1F` [Example 72, 3-{8-(2,6-difluorophenyl)-2-[4-(4-methyl-1-piperazinyl)-1-piperidinyl]-7-oxo-5,6,7,8-tetrahydropyrimido[4,5-d]pyrimidin-4-yl}-4-methyl-N-(1-methylethyl)benzamide]: in data set [3], the inhibition of neutrophilia result is given as “statistically significant inhibition of neutrophilia”. The IC50 in data set [2] (bound, screened at a different top concentration, read-out: IC50) was greater than 1 nM.

On to `Cc1ccc(C(=O)NC(C)C)cc1-c1nc(N2CCN(C(c3ccccc3)c3ccccc3)CC2)nc2c1CNC(=O)N2c1c(F)cccc1F` [Example 84, 3-{8-(2,6-difluorophenyl)-2-[4-(diphenylmethyl)-1-piperazinyl]-7-oxo-5,6,7,8-tetrahydropyrimido[4,5-d]pyrimidin-4-yl}-4-methyl-N-(1-methylethyl)benzamide trifluoroacetate], for which the IC50 in data set [1] (setting [6]) was greater than 1.78 µM; in data set [2] (setting [5]), greater than 100 nM.

Turning to `CCCNC(=O)c1ccc(-c2nc(NCCN(C)C)nc3c2CNC(=O)N3c2c(F)cccc2F)cc1` [Example 98, 4-(8-(2,6-difluorophenyl)-2-{[2-(dimethylamino)ethyl]amino}-7-oxo-5,6,7,8-tetrahydropyrimido[4,5-d]pyrimidin-4-yl)-N-propylbenzamide trifluoroacetate], the results for the IC50 in data set [1] (setting [4]) and in data set [2] (setting [5]) were greater than 15.8 µM and greater than 100 nM, respectively.

`CN(C)CCNc1nc(-c2ccc(C(=O)Nc3ccccc3)cc2)c2c(n1)N(c1c(F)cccc1F)C(=O)NC2` [Example 99, 4-(8-(2,6-difluorophenyl)-2-{[2-(dimethylamino)ethyl]amino}-7-oxo-5,6,7,8-tetrahydropyrimido[4,5-d]-pyrimidin-4-yl)-N-phenylbenzamide trifluoroacetate]: the figures for the IC50 in data set [1] (setting [6]) and in data set [2] (setting [5]) were no less than 1.26 µM and greater than 100 nM, respectively.

As to `CN(C)CCNc1nc(-c2ccc(C(=O)Nc3ccc(F)cc3)cc2)c2c(n1)N(c1c(F)cccc1F)C(=O)NC2` [Example 100, 4-(8-(2,6-difluorophenyl)-2-{[2-(dimethylamino)ethyl]amino}-7-oxo-5,6,7,8-tetrahydropyrimido[4,5-d]pyrimidin-4-yl)-N-(4-fluorophenyl)benzamide trifluoroacetate], the IC50 is greater than 15.8 µM in data set [1] (setting [4]) and greater than 100 nM in data set [2] (setting [5]).

On to `CN(C)CCNc1nc(-c2ccc(C(=O)N(C)C)cc2)c2c(n1)N(c1c(F)cccc1F)C(=O)NC2` [Example 101, 4-(8-(2,6-difluorophenyl)-2-{[2-(dimethylamino)ethyl]amino}-7-oxo-5,6,7,8-tetrahydropyrimido[4,5-d]pyrimidin-4-yl)-N,N-dimethylbenzamide trifluoroacetate], for which the IC50 in data set [1] (setting [4]) was greater than 15.8 µM; in data set [2] (setting [5]), greater than 100 nM.

`CN(C)CCNc1nc(-c2ccc(C(N)=O)cc2)c2c(n1)N(c1c(F)cccc1F)C(=O)NC2` [Example 103, 4-(8-(2,6-difluorophenyl)-2-{[2-(dimethylamino)ethyl]amino}-7-oxo-5,6,7,8-tetrahydropyrimido[4,5-d]pyrimidin-4-yl)benzamide trifluoroacetate]: the figures for the IC50 in data set [1] (setting [4]) and in data set [2] (setting [5]) were greater than 15.8 µM and greater than 100 nM, respectively.

Regarding `Cc1ccc(C(=O)NCc2ccccc2)cc1-c1nc(N2CCC(N(C)C(=O)OC(C)(C)C)CC2)nc2c1CNC(=O)N2c1c(F)cccc1F` [Example 147, 1,1-dimethylethyl {1-[8-(2,6-difluorophenyl)-4-(2-methyl-5-{[(phenylmethyl)amino]carbonyl}phenyl)-7-oxo-5,6,7,8-tetrahydropyrimido[4,5-d]pyrimidin-2-yl]-4-piperidinyl}methylcarbamate], the melting point is 146 to 150 °C (dec.).

On to `CNC(=O)c1ccc(C)c(-c2nc(NCCNC(C)C)nc3c2CNC(=O)N3c2c(F)cccc2F)c1` [Example 167, 3-[8-(2,6-difluorophenyl)-2-({2-[(1-methylethyl)amino]ethyl}amino)-7-oxo-5,6,7,8-tetrahydropyrimido[4,5-d]-pyrimidin-4-yl]-N,4-dimethylbenzamide], for which the melting point was 136 to 139 °C (dec.).

On to `CNC(=O)c1ccc(C)c(-c2nc(NCCCNC(C)C)nc3c2CNC(=O)N3c2c(F)cccc2F)c1` [Example 168, 3-[8-(2,6-difluorophenyl)-2-({3-[(1-methylethyl)amino]propyl}amino)-7-oxo-5,6,7,8-tetrahydropyrimido[4,5-d]pyrimidin-4-yl]-N,4-dimethylbenzamide], for which the melting point was 153 to 157 °C (dec.).

Take `CNC(=O)c1ccc(C)c(-c2nc(N3CCN(C)CC3)nc3c2CNC(=O)N3c2c(F)cccc2F)c1` [Example 169, 3-[8-(2,6-difluorophenyl)-2-(4-methyl-1-piperazinyl)-7-oxo-5,6,7,8-tetrahydropyrimido[4,5-d]pyrimidin-4-yl]-N,4-dimethylbenzamide]: the melting point was 164 to 168 °C (dec.).

On to `CNC(=O)c1ccc(C)c(-c2nc(NCCCNC(C)(C)C)nc3c2CNC(=O)N3c2c(F)cccc2F)c1` [Example 170, 3-[8-(2,6-difluorophenyl)-2-({3-[(1,1-dimethylethyl)amino]propyl}amino)-7-oxo-5,6,7,8-tetrahydropyrimido[4,5-d]pyrimidin-4-yl]-N,4-dimethylbenzamide], for which the melting point is 166 to 170 °C (dec.).
